Read-outs that look alike come from different tables or passages of the source.
Key:
[1] = test system: chronic rapid pacing heart failure model; assay: LV geometry, LV function and systemic hemodynamics with chronic rapid pacing (Table III); format: in vivo, pig; settings: Rapid Pacing + MMPi, 20 mg/kg QD, 3 weeks, mean ± SEM
Description: Pacemakers were implanted or sham procedures performed with the animals anesthetized as described in the preceding section. In addition to the placement of the aortic access port, a shielded stimulating electrode was sutured onto the left atrium, connected to a modified programmable pacemaker (8329, Medtronic, Inc., Minneapolis, Minn.), and buried in a subcutaneous pocket. The pericardium was approximated, the thoracotomy closed, and the pleural space evacuated of air. Ten to 14 days following recovery from the surgical procedure, baseline studies were performed, and the protocols described above were begun. Cardiac auscultation and an electrocardiogram were performed frequently during the pacing protocol in order to ensure proper operation of the pacemaker and the presence of 1:1 conduction. In this porcine preparation, atrio-ventricular conduction can be maintained at this pacing rate and therefore provide a homogeneous pattern of ventricular myocardial electrical activation. The sham operated controls were cared for in identical fashion with the exception of the pacing protocol. All animals were treated and cared for in accordance with the National Institutes of Health "Guide for the Care and Use of Laboratory Animals" (National Research Council, Washington, 1996).
LV size and function were measured at weekly intervals in all of the pigs undergoing rapid pacing. For these studies, the animals were brought to the laboratory and the pacemaker deactivated. All measurements were performed at an ambient resting heart rate within 30 to 40 minutes following pacemaker deactivation. Two-dimensional and M-mode echocardiographic studies (ATL Ultramark VI, 2.25 MHz transducer, Bothell, Wash.) were used to image the LV from a right parasternal approach. LV fractional shortening was calculated as ([…])/end-diastolic dimension and was expressed as a percent. Peak circumferential global average wall stress was computed using a spherical model of reference: σ(gm/cm^2)=(PD/4h(1+h/D))×1.36; where P=aortic systolic pressure measured from the access port, D=minor axis dimension at end-diastole, and h=wall thickness. The mean velocity of circumferential fiber shortening (Vcf) was calculated using the LV echocardiographic dimension measurements and the arterial pressure trace. The LV ejection time, used in the calculation of Vcf, was rate-corrected to a heart rate of 60 bpm by […] by the square root of the RR interval.

[2] = plasma levels of Compound A in MI-rat; format: in vivo; settings: po, read-out: Plasma Level
[3] = test system: catalytic domain of stromelysin; assay: plasma MMP inhibitory activity (thiopeptolide hydrolysis), stromelysin; format: biochemical; settings: plasma after 10 mg/kg oral administration
Experimental: (§1) The MMP inhibitor chosen for these studies was Compound A as above. A single oral dose of 10 mg/kg of Compound A was administered in one pig, and a second pig was simultaneously administered a single 10 mg/kg dose of the MMP inhibitor intravenously. Plasma samples were serially collected from the chronically placed arterial access ports. Plasma levels of the MMP inhibitor were determined by the degree of hydrolysis of the MMP substrate thiopeptolide Ac-Pro-Leu-Gly-thioester-Leu-Leu-Gly=OEt. […] A pharmacokinetic profile was constructed using these initial data, and it was predicted that an oral delivery of 20 mg/kg/day of Compound A would provide significant MMP plasma inhibitory activity at trough levels. Accordingly, the 3 pigs underwent 20 mg/kg QD-AM of treatment with Compound A for 5 days. In order to confirm adequate MMP inhibitory activity, plasma was collected prior to the AM dose with each day of treatment. […] Thus, a practical dosing regiment of Compound A was established which provided stable plasma MMP inhibitory activity in the animal model to be used in the present study.

MMP = MMP inhibitory activity of plasma from treated pigs, artificial MMP substrate; format: biochemical
Experimental: as §1

isolated LV myocytes = assay: isolated myocyte contractile function with pacing induced congestive heart failure (Table IV); settings: Rapid Pacing + MMPi, 20 mg/kg QD
Experimental: Following completion of the 21-day protocol, a final set of LV function measurements were performed and plasma collected. Following steady-state LV function measurements, 35 cc of blood was drawn from the arterial access port into chilled tubes containing EDTA (1.5 mg/mL). The blood samples were immediately centrifuged (2000 g, 10 min, 4° C.), the plasma decanted into separate tubes, frozen in a dry ice/methanol bath, and stored at -80° C. until the time of assay. The animals were then anesthetized as described in the preceding section, a sternotomy performed, and the heart quickly extirpated and placed in a phosphate buffered ice slush. The great vessels, atria, and right ventricle were carefully trimmed away, and the LV weighed. The region of the LV free wall incorporating the circumflex artery (5×5 cm) was excised and prepared for myocyte isolation. The region of the left ventricular free wall comprising the left anterior descending artery (3×5 cm) was cannulated and prepared for perfusion fixation.
Myocytes were isolated from the LV free wall as follows. The left circumflex coronary artery was perfused with a collagenase solution (0.5 mg/mL, Worthington, type II; 146 U/mg) for 35 minutes. The tissue was then minced into 2 mm sections and gently agitated. After 15 minutes, the supernatant was removed, filtered, and the cells allowed to settle. The myocyte pellet (5×10^4 cells/mL) was then resuspended in standard cell culture media (M199, Gibco Laboratories, Grand Island, N.Y.). […] Viable myocytes were defined as those cells which retained a rod shape, were calcium tolerant, responded to electrical stimulation, and excluded trypan blue. Isolated myocyte function was examined using a thermostatically controlled chamber (37° C.) containing a volume of 2.5 mL and two stimulating platinum electrodes to image the isolated myocytes on an inverted microscope (Axiovert IM35, Zeiss Inc., Germany). A 20× long working distance Hoffmann Modulation Contrast objective (Modulation Optics Inc., Greenvale, N.Y.) was used to image the myocytes. Myocyte contractions were elicited by field stimulating the tissue chamber at 1 Hz (S11, Grass Instruments, Quincy, Mass.) using current pulses of 5 msec duration and voltages 10% above contraction threshold. Myocyte motion signals were captured and input through an edge detector system (Crescent Electronics, Sandy, Utah). The distance between the left and right myocyte edges was converted into a voltage signal, digitized, and input to a computer (80386; ZBV2526, Zenith Data Systems, St. Joseph, Mich.) for analysis. Parameters computed from the digitized contraction profiles include percent shortening, velocity of shortening, velocity of relengthening, time to peak contraction, and duration of contraction.
Indices of LV and myocyte function were compared between the three treatment groups using multi-way analysis of variance (ANOVA). For comparisons of LV function with each week of pacing, an ANOVA for repeated measures was used. […] For comparisons of neurohormonal profiles, the Student-Neuman-Kuells test was employed. The categorical scores obtained from the histomorphometric studies were compared between groups using the Chi-Square analysis. All statistical procedures were performed using the BMDP statistical software package (BMDP Statistical Software Inc., Los Angeles, Calif.). […] Values of p<0.05 were considered to be statistically significant.

[4] = test system: MI-rat (coronary artery ligation) heart failure model; assay: ischemic model of heart failure (MI-rat), Compound A dose-response; format: in vivo; design: LVV at LVEDP: unit not given here; settings: for LVEDP / LVV at LVEDP / dp/dt MAX: 6 weeks
plasma neurohormones = plasma neurohormones with chronic rapid pacing (Table III); format: in vivo, pig; settings: Rapid Pacing + MMPi, 20 mg/kg QD, 3 weeks, mean ± SEM
Experimental: Following steady-state LV function measurements, 35 cc of blood was drawn from the arterial access port into chilled tubes containing EDTA (1.5 mg/mL). The blood samples were immediately centrifuged (2000 g, 10 min, 4° C.), the plasma decanted into separate tubes, frozen in a dry ice/methanol bath, and stored at -80° C. until the time of assay.
The plasma samples were assayed for renin activity, catecholamine levels, and plasma MMP inhibition levels. Plasma renin activity (PRA) was determined by computing angiotensin I production using a radioimmunoassay (NEA-026, New England Nuclear, Boston, Mass.). Plasma norepinephrine was measured using high-performance liquid chromatography and normalized to pg/mL of plasma. All assays were performed in duplicate.
For comparisons of neurohormonal profiles, the Student-Neuman-Kuells test was employed. […] Values of p<0.05 were considered to be statistically significant.

CC(C)C(NS(=O)(=O)c1ccc(-c2ccc(Br)cc2)cc1)C(=O)O (stereo not shown) [Compound A, 2-(4'-bromobiphenyl-4-sulfonylamino)-3-methylbutyric acid]
End-Diastolic Dimension [1]: 4.7 ± 0.2 cm
Fractional Shortening [1]: 26 ± 3%
Heart Rate [1]: 149 ± 3 bpm
Mean Arterial Pressure [1]: 83 ± 2 mmHg
Peak Wall Stress [1]: 185 ± 11 g/cm^2
Vcf (velocity of circumferential fiber shortening) [1]: 1.4 ± 0.2 s⁻¹
Vcfc (velocity of circumferential fiber shortening corrected for heart rate) [1]: 2.3 ± 0.2 s⁻¹
Wall Thickness [1]: 0.80 ± 0.22 CM
concentration at 1008 h ([2]; 0.005 mg/kg/day in chow): 2 ± 1 µM
concentration at 1008 h ([2]; 0.05 mg/kg/day in chow): 16 ± 4 µM
concentration at 1008 h ([2]; 0.5 mg/kg/day in chow): 55 ± 3 µM
concentration at 1008 h ([2]; 5 mg/kg/day in chow): 201 ± 7 µM
reduction in activity against the catalytic domain of stromelysin [3]: ~50%
plasma MMP inhibitory activity (MMP; pig, 20 mg/kg QD for 5 days, pre-dose plasma): significant plasma MMP inhibitory activity was observed
reduction of in vitro MMP activity by plasma (MMP; plasma after 3 days of treatment, 20 mg/kg QD, artificial MMP substrate): over 100%
Percent Shortening (isolated LV myocytes; 7 mM calcium): 5.6 ± 0.5%
Relengthening Velocity (isolated LV myocytes; 7 mM calcium): 78 ± 5 μm/s
Resting Length (isolated LV myocytes; 7 mM calcium): 156 ± 5 μm
Shortening Velocity (isolated LV myocytes; 7 mM calcium): 84 ± 7 μm/s
Time to 50% Relaxation (isolated LV myocytes; 7 mM calcium): 102 ± 5 ms
Time to Peak Contraction (isolated LV myocytes; 7 mM calcium): 240 ± 3 ms
Total Duration (isolated LV myocytes; 7 mM calcium): 476 ± 10 ms
Percent Shortening (isolated LV myocytes; […] nM isoproterenol): 5.1 ± 0.5%
Relengthening Velocity (isolated LV myocytes; […] nM isoproterenol): 80 ± 11 μm/s
Resting Length (isolated LV myocytes; […] nM isoproterenol): 161 ± 3 μm
Shortening Velocity (isolated LV myocytes; […] nM isoproterenol): 108 ± 11 μm/s
Time to 50% Relaxation (isolated LV myocytes; […] nM isoproterenol): 104 ± 6 ms
Time to Peak Contraction (isolated LV myocytes; […] nM isoproterenol): 175 ± 2 ms
Total Duration (isolated LV myocytes; […] nM isoproterenol): 433 ± 12 ms
Percent Shortening (isolated LV myocytes; baseline): 2.2 ± 0.1%
Relengthening Velocity (isolated LV myocytes; baseline): 26 ± 2 μm/s
Resting Length (isolated LV myocytes; baseline): 169 ± 4 μm
Shortening Velocity (isolated LV myocytes; baseline): 31 ± 2 μm/s
Time to 50% Relaxation (isolated LV myocytes; baseline): 131 ± 5 ms
Time to Peak Contraction (isolated LV myocytes; baseline): 244 ± 7 ms
Total Duration (isolated LV myocytes; baseline): 498 ± 9 ms
LVEDP ([4]; 0.005 mg/kg/day in chow): 20 ± 4 mm Hg
LVV at LVEDP ([4]; 0.005 mg/kg/day in chow): 650 ± 96
dp/dt MAX ([4]; 0.005 mg/kg/day in chow): 5900 ± 474 mm Hg/sec
LVEDP ([4]; 0.05 mg/kg/day in chow): 16 ± 3 mm Hg
LVV at LVEDP ([4]; 0.05 mg/kg/day in chow): 622 ± 72
dp/dt MAX ([4]; 0.05 mg/kg/day in chow): 6553 ± 331 mm Hg/sec
LVEDP ([4]; 0.5 mg/kg/day in chow): 20 ± 3 mm Hg
LVV at LVEDP ([4]; 0.5 mg/kg/day in chow): 751 ± 65
dp/dt MAX ([4]; 0.5 mg/kg/day in chow): 5997 ± 351 mm Hg/sec
LVEDP ([4]; 5 mg/kg/day in chow): 16 ± 3 mm Hg
LVV at LVEDP ([4]; 5 mg/kg/day in chow): 647 ± 66
dp/dt MAX ([4]; 5 mg/kg/day in chow): 6357 mm Hg/sec
LV function as measured by dP/dt MAX ([4]; 3 highest doses): significantly improved LV function
LV dilation ([4]; every dose (0.005-5 mg/kg/day in chow)): significantly reduced LV dilation at every dose
Norepinephrine (plasma neurohormones): 1073 ± 241 pg/mL
Renin Activity (plasma neurohormones): 10.4 ± 1.1 ng/mL/h

Reference: US5948780A, “Method for treating and preventing heart failure and ventricular dilatation” (priority 1997, dated 1999)
